One data set has as its system host cell. Briefly: Host cell cytotoxicity in vitro (preliminary data). Format: cell-based.
In data set [1] the test system is vinculin-containing adhesion complexes. Briefly: Vinculin-containing adhesion complexes in HUVEC. The data set is classed as cell-based, human. Conditions: ML 141 10 μM, 18-20 h, vehicle control 64%. As to the method: FIG. 10A is an image depicting ML 141 inhibition of CDC42 limiting the formation of adhesion complexes. Human umbilical vein endothelial cells (HUVEC) were incubated (18-20 h) with the vehicle control dimethyl sulfoxide (DMSO) or with ML 141 (10 μM). Pretreated HUVEC were fixed, permeabilized, blocked, and stained with anti-vinculin followed by anti-mouse Alexa Fluor 488. Arrows indicate vinculin-containing complexes. Data are presented as the % of cells where vinculin-containing adhesion complexes were detected. 100-200 cells/treatment were evaluated from randomly selected fields (p<0.001 by χ^2). Scale bar 50 μm.

The next data set has as its system Staphylococcus aureus. The data set can be described thus: Staphylococcus aureus host cell invasion assay in HUVEC, flow cytometry. Format: cell-based. As to the method: In one embodiment, human umbilical vein endothelial cells (HUVEC, Life Technologies) are cultured in M200 medium supplemented with LSGS. RAW 264.7 cells (American Type Culture Collection, ATCC, Manassas, Va.) are cultured in RPMI supplemented with 10% FBS and L-glutamine. All cell types are maintained at 5% CO2, 37° C., in 75 cm^2 vented cap flasks (Thermo-Fisher). For assays, cultured cells are plated at 1×10^5 cells/ml in 35 mm culture dishes coated with Attachment Factor. The next day, cells are pretreated in culture medium containing the vehicle control or ML 141. For compound delivery, ML 141 first is suspended into DMSO or into PEG at a concentration of 5 mM. The 5 mM solution is diluted to 1 mM in the solvent and then diluted to the final concentration for each experiment in either serum-containing or serum-free medium. For vehicle control treatment, the same volume of PEG or DMSO as that of ML 141 is added to medium. The following day, the invasion assay is performed. For the shorter duration experiments, compound is added on the same day as the invasion assay, 1 hour prior to bacteria.
In another embodiment, HUVEC (Millipore, Billerica, Mass.) are cultured in EndoGRO LS Complete Media (Millipore) and are maintained at 5% CO2, 37° C., in 75 cm^2 vented cap flasks (Thermo-Fisher). For the invasion assay, cultured cells are plated at 1×10^4 cells/ml in 96-well culture dishes coated with Attachment Factor. The next day, cells are pretreated in culture medium containing the vehicle control, ML 141, or ML 141 structural analog. For compound delivery, ML 141 and structural analogs first are suspended into PEG at a concentration of 5 mM. The 5 mM solution is diluted to 1 mM in the solvent and then is diluted to the final concentration for each experiment in serum containing medium. For vehicle control treatment, the same volume of PEG as that of ML 141 or of ML 141 structural analog is added to the medium. The following day, the invasion assay is performed. Bacteria are added directly to medium containing vehicle control, ML 141, or the ML 141 structural analog.
Two days prior to the assay, TSB is inoculated with S. aureus (American Type Culture Collection #29213) and incubated overnight (225 rpm, 37° C.). Bacteria are subcultured the next day into fresh TSB. On the day of the assay, bacteria are pelleted (10000×g, 37° C., 3 min), are washed in saline, are pelleted as above, are resuspended in saline, then fluorescently labeled by incubation with rabbit anti-mouse IgG Alexa Fluor 488 (final concentration 8 μg/ml, RT, 20 min). Protein A, a S. aureus cell surface protein, avidly binds IgG thereby labeling the bacteria. Labeled bacteria are washed twice as above and are resuspended to 3×10^8 CFU/ml in saline. Host cells are incubated with the bacteria for 1 hour (1.2×10^8 CFU/ml for same-day recovery, 5×10^6 for recovery after 48 hours, 1.4×10^7 CFU/ml; 5% CO2, 37° C.). Following infection, extracellular bacteria are removed by extensive washes with PBS and incubation of the host cells with antimicrobials that have limited mammalian membrane permeability (lysostaphin, 20 μg/ml and gentamicin, 50 μg/ml; 45 min for same-day recovery studies, 48 hours for 2-day recovery studies; 5% CO2, 37° C.). To detect the level of infection using flow cytometry, cells that have been infected with fluorescently-labeled bacteria are washed extensively with PBS, lifted from 96-well plate by incubation with trypsin, washed extensively in FACS buffer (2% BSA/0.1% sodium azide/PBS), fixed (FACS buffer containing 0.74% formaldehyde), and are counted using an Accuri flow cytometer (BD, Franklin Lakes, N.J.). They are also lifted from culture dishes using cell scrapers, pelleted, fixed (1% BSA/0.74% formaldehyde/PBS), and are counted using an Accuri flow cytometer. For enumeration of the infecting bacteria, intracellular bacteria are released from host cells using 1% saponin/PBS (20 min, 5% CO2, 37° C.) and serial dilutions are plated on TSA (16 hours, 37° C.). […]
On the technique in general: Flow cytometry measures light scatter and fluorescence of single cells or particles in a stream.

Data set [2] deals with Human umbilical vein endothelial cells. The data set can be described thus: Cytotoxicity by propidium iodide exclusion, HUVEC. The data set is classed as cell-based.

In general, inhibition refers to the change of the read-out against control, counted positive when it falls.

For the compound `COc1ccc(C2CC(c3ccccc3)=NN2c2ccc(S(N)(=O)=O)cc2)cc1` (stereo not drawn) [ML 141, 4-[3-(4-methoxyphenyl)-5-phenyl-3,4-dihydropyrazol-2-yl]benzenesulfonamide], the “concentration at which host cell cytotoxicity was undetectable” value with host cell is given as “below 30 μM”. Further, the “% of cells with vinculin-containing adhesion complexes” value in data set [1] came to 37%. Further, the decrease of invasion entry in the data set on Staphylococcus aureus (ML 141 10.0 μM in PEG, 18 hours, HUVEC infected 1 hour) is given as “more than 80%”. In addition, the inhibition at 10 µM with Staphylococcus aureus (Staphylococcus aureus, HUVEC, 18 h, read-out: inhibition of invasion) is approximately 50%. Also, the “Cytotoxicity (in words)” value in data set [2] (10 μM, 18-20 h, Tables 4 and 5) is recorded as “not detected”. The “Mean fluorescence intensity (×10^4 ± SEM), Compound (10 μM)” value in data set [2] (HUVEC pretreated 18-20 h) was 2.1 ± 0.3 ×10^4.
